Data as given in patent US20260097022A1, “COMPOUNDS AND USES THEREOF” (Integrated Biosciences, Inc., priority 2023, published 2026).

System: etoposide-treated IMR-90 cells
Test: Etoposide-induced senescence model, resazurin cell viability (screen and dose-response)
Assay type: cell-based, human
Conditions: for Therapeutic Index (TI): etoposide-induced senescence model, ratio of IC50 values between etoposide- and DMSO-treated IMR-90 fibroblasts
How it was run: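 IMR-90 fibroblasts made senescent with 50 μM etoposide for 2 days, then 4 days recovery before plating. Compounds at 10 μM or 1 μM final (screen) or three-fold dilutions (1% DMSO) for 3 days, then 0.15 mM resazurin 1 day, fluorescence 550/590 nm. Viability expressed as fraction of untreated controls; biological duplicates.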

Row | SMILES | Therapeutic Index (TI) | senolytic activity in screen (10 μM, 3 days, active: control viability >0.5, Snc/control ratio <0.7)
1 | CCOc1ccccc1NC(=O)CSc1nc2ccc(NC(=O)c3ccccc3Cl)cc2s1 [compound 26] | +++ (compounds with a TI of >5 were labeled as +++) | 
2 | CCOc1ccc(C(=O)Nc2ccc3nc(SCC(N)=O)sc3c2)cc1 [compound 91] | ++ (compounds with a TI of 1 to 5 were labelled as ++) | 
3 | COc1ccc(C(=O)Nc2ccc3nc(SCC(=O)N(C)c4ccccc4)sc3c2)cc1 [compound 156] | + (Compounds with a TI of <1 were labelled as +) | 
4 | Cc1ccccc1C(=O)Nc1ccc2nc(SCC(N)=O)sc2c1 [compound 75] | ++ (compounds with a TI of 1 to 5 were labelled as ++) | 
5 | CC(=O)Nc1ccc(NC(=O)CSc2nc3ccc(NC(=O)c4ccc(C)cc4)cc3s2)cc1 [compound 133] | ++ (compounds with a TI of 1 to 5 were labelled as ++) | 
6 | CCc1cccc(CC)c1NC(=O)CSc1nc2ccc(NC(=O)c3ccccc3)cc2s1 [compound 97] | ++ (compounds with a TI of 1 to 5 were labelled as ++) | 
7 | O=C(CSc1nc2ccc(NC(=O)c3ccccc3Br)cc2s1)Nc1ccccc1 [compound 127] | ++ (compounds with a TI of 1 to 5 were labelled as ++) | 
8 | COc1ccccc1C(=O)Nc1ccc2nc(SCC(=O)N3CCc4ccccc43)sc2c1 [compound 30] | ++ (compounds with a TI of 1 to 5 were labelled as ++) | 
9 | O=C(CSc1nc2ccc(NC(=O)c3ccccc3)cc2s1)NC[C@H]1CCCO1 [compound 8] | +++ (compounds with a TI of >5 were labeled as +++) | 
10 | COc1ccccc1C(=O)Nc1ccc2nc(SCC(=O)Nc3c(C)cc(C)cc3C)sc2c1 [compound 44] | ++ (compounds with a TI of 1 to 5 were labelled as ++) | 
11 | CCCCOc1ccc(NC(=O)CSc2nc3ccc(NC(=O)c4ccccc4Cl)cc3s2)cc1 [compound 148] | + (Compounds with a TI of <1 were labelled as +) | 
12 | COc1ccc(NC(=O)CSc2nc3ccc(NC(=O)c4ccccc4OC)cc3s2)cc1 [compound 101] | ++ (compounds with a TI of 1 to 5 were labelled as ++) | 
13 | CCOc1ccc(NC(=O)CSc2nc3ccc(NC(=O)c4ccccc4Cl)cc3s2)cc1 [compound 22] | +++ (compounds with a TI of >5 were labeled as +++) | 
14 | O=C(CSc1nc2ccc(NC(=O)c3ccccc3F)cc2s1)NC1CC1 [compound 116] | ++ (compounds with a TI of 1 to 5 were labelled as ++) | 
15 | CC(=O)c1ccc(NC(=O)CSc2nc3ccc(NC(=O)c4ccc(C)cc4)cc3s2)cc1 [compound 154] | + (Compounds with a TI of <1 were labelled as +) | 
16 | O=C(CSc1nc2ccc(NC(=O)c3ccccc3)cc2s1)Nc1ccccc1C(F)(F)F [compound 128] | ++ (compounds with a TI of 1 to 5 were labelled as ++) | 
17 | O=C(CSc1nc2ccc(NC(=O)c3ccc(F)cc3)cc2s1)Nc1ccccc1 [compound 122] | ++ (compounds with a TI of 1 to 5 were labelled as ++) | 
18 | CCOc1ccc(C(=O)Nc2ccc3nc(SCC(=O)Nc4ccccc4)sc3c2)cc1 [compound 119] | ++ (compounds with a TI of 1 to 5 were labelled as ++) | 
19 | O=C(CSc1nc2ccc(NC(=O)c3ccccc3)cc2s1)Nc1cccc([N+](=O)[O-])c1 [compound 87] | ++ (compounds with a TI of 1 to 5 were labelled as ++) | 

Row | SMILES | Therapeutic Index (TI) | senolytic activity in screen (10 μM, 3 days, active: control viability >0.5, Snc/control ratio <0.7)
20 | COC(=O)c1ccc(NC(=O)CSc2nc3ccc(NC(=O)c4ccc(C)cc4)cc3s2)cc1 [compound 169] | + (Compounds with a TI of <1 were labelled as +) | 
21 | Cc1ccc(NC(=O)CSc2nc3ccc(NC(=O)c4ccccc4)cc3s2)c(C)c1 [compound 88] | ++ (compounds with a TI of 1 to 5 were labelled as ++) | 
22 | COc1ccc(C(=O)Nc2ccc3nc(SCC(=O)Nc4ccccc4C)sc3c2)cc1 [compound 60] | ++ (compounds with a TI of 1 to 5 were labelled as ++) | 
23 | CCc1ccc(NC(=O)CSc2nc3ccc(NC(=O)c4ccccc4OC)cc3s2)cc1 [compound 123] | ++ (compounds with a TI of 1 to 5 were labelled as ++) | 
24 | Cc1cc(C)c(NC(=O)C(C)Sc2nc3ccc(NC(=O)c4ccccc4C)cc3s2)c(C)c1 (centres unmarked) [compound 144] | + (Compounds with a TI of <1 were labelled as +) | 
25 | Cc1ccc(NC(=O)CSc2nc3ccc(NC(=O)c4ccccc4C)cc3s2)c(C)c1 [compound 99] | ++ (compounds with a TI of 1 to 5 were labelled as ++) | 
26 | Cc1ccccc1C(=O)Nc1ccc2nc(SCC(=O)Nc3ccc(Br)cc3)sc2c1 [compound 121] | ++ (compounds with a TI of 1 to 5 were labelled as ++) | 
27 | C[C@@H]1O[C@@H](O[C@H]2C[C@@H](O)[C@]3(CO)[C@H]4[C@H](O)C[C@]5(C)[C@@H](C6=CC(=O)OC6)CC[C@]5(O)[C@@H]4CC[C@]3(O)C2)[C@H](O)[C@H](O)[C@H]1O [ouabain, reference compound] |  | active
28 | COc1cccc(C(=O)Nc2ccc3nc(SCC(=O)N(C)c4ccccc4)sc3c2)c1 [compound 45] | ++ (compounds with a TI of 1 to 5 were labelled as ++) | 
29 | COc1ccc(NC(=O)CSc2nc3ccc(NC(=O)c4ccc(OC)cc4)cc3s2)cc1 [compound 85] | ++ (compounds with a TI of 1 to 5 were labelled as ++) | 
30 | COc1ccc(C(=O)Nc2ccc3nc(SCC(=O)N4CCc5ccccc54)sc3c2)cc1 [compound 33] | ++ (compounds with a TI of 1 to 5 were labelled as ++) | 
31 | CCCCOc1ccc(C(=O)Nc2ccc3nc(SCC(=O)Nc4ccc(C(C)C)cc4)sc3c2)cc1 [compound 82] | ++ (compounds with a TI of 1 to 5 were labelled as ++) | 
32 | CCCCOc1ccc(NC(=O)CSc2nc3ccc(NC(=O)c4ccc(Cl)cc4Cl)cc3s2)cc1 [compound 129] | ++ (compounds with a TI of 1 to 5 were labelled as ++) | 
33 | COc1ccccc1NC(=O)CSc1nc2ccc(NC(=O)c3ccccc3C)cc2s1 [compound 163] | + (Compounds with a TI of <1 were labelled as +) | 
34 | COc1ccc(C(=O)Nc2ccc3nc(SCC(=O)Nc4ccc(C)cc4C)sc3c2)cc1 [compound 11] | +++ (compounds with a TI of >5 were labeled as +++) | 
35 | COc1ccc(OC)c(NC(=O)CSc2nc3ccc(NC(=O)c4ccccc4C)cc3s2)c1 [compound 16] | +++ (compounds with a TI of >5 were labeled as +++) | 
36 | Cc1ccccc1C(=O)Nc1ccc2nc(SCC(=O)Nc3ccccc3Cl)sc2c1 [compound 110] | ++ (compounds with a TI of 1 to 5 were labelled as ++) | 
37 | Cc1cccc(NC(=O)CSc2nc3ccc(NC(=O)c4ccccc4Cl)cc3s2)c1C [compound 95] | ++ (compounds with a TI of 1 to 5 were labelled as ++) | 
38 | CCOc1ccc(C(=O)Nc2ccc3nc(SCC(=O)Nc4ccccc4Cl)sc3c2)cc1 [compound 64] | ++ (compounds with a TI of 1 to 5 were labelled as ++) | 

Row | SMILES | Therapeutic Index (TI) | senolytic activity in screen (10 μM, 3 days, active: control viability >0.5, Snc/control ratio <0.7)
39 | O=C(Nc1ccc2nc(SCC(=O)N3CCc4ccccc43)sc2c1)c1ccccc1Cl [compound 132] | ++ (compounds with a TI of 1 to 5 were labelled as ++) | 
40 | CCCCOc1ccc(NC(=O)CSc2nc3ccc(NC(=O)c4ccccc4Br)cc3s2)cc1 [compound 50] | ++ (compounds with a TI of 1 to 5 were labelled as ++) | 
41 | COc1ccccc1NC(=O)CSc1nc2ccc(NC(=O)c3ccc(C)cc3)cc2s1 [compound 39] | ++ (compounds with a TI of 1 to 5 were labelled as ++) | 
42 | Cc1ccccc1C(=O)Nc1ccc2nc(SCC(=O)Nc3ccc(Cl)cc3)sc2c1 [compound 100] | ++ (compounds with a TI of 1 to 5 were labelled as ++) | 
43 | O=C(CSc1nc2ccc(NC(=O)c3ccccc3)cc2s1)Nc1cccc(C(F)(F)F)c1 [compound 68] | ++ (compounds with a TI of 1 to 5 were labelled as ++) | 
44 | COc1ccc(C(=O)Nc2ccc3nc(SCC(=O)Nc4ccc(C)c(Cl)c4)sc3c2)cc1 [compound 74] | ++ (compounds with a TI of 1 to 5 were labelled as ++) | 
45 | COc1ccc(NC(=O)CSc2nc3ccc(NC(=O)c4ccc(C)cc4)cc3s2)cc1 [compound 115] | ++ (compounds with a TI of 1 to 5 were labelled as ++) | 
46 | CCOc1ccc(C(=O)Nc2ccc3nc(SCC(=O)Nc4ccccc4C)sc3c2)cc1 [compound 35] | ++ (compounds with a TI of 1 to 5 were labelled as ++) | 
47 | Cc1cc(C)c(NC(=O)CSc2nc3ccc(NC(=O)c4ccccc4Cl)cc3s2)c(C)c1 [compound 58] | ++ (compounds with a TI of 1 to 5 were labelled as ++) | 
48 | COc1ccc(CNC(=O)CSc2nc3ccc(NC(=O)c4ccccc4C)cc3s2)cc1 [compound 161] | + (Compounds with a TI of <1 were labelled as +) | 
49 | COc1ccc(NC(=O)CSc2nc3ccc(NC(=O)c4ccccc4)cc3s2)cc1 [compound 57] | ++ (compounds with a TI of 1 to 5 were labelled as ++) | 
50 | COc1ccc(C(=O)Nc2ccc3nc(SCC(=O)Nc4cc(C)cc(C)c4)sc3c2)cc1 [compound 103] | ++ (compounds with a TI of 1 to 5 were labelled as ++) | 
51 | CCCCOc1ccc(C(=O)Nc2ccc3nc(SCC(=O)Nc4ccc(C(C)=O)cc4)sc3c2)cc1 [compound 78] | ++ (compounds with a TI of 1 to 5 were labelled as ++) | 
52 | CCCCOc1ccc(NC(=O)CSc2nc3ccc(NC(=O)c4cccc(C)c4)cc3s2)cc1 [compound 126] | ++ (compounds with a TI of 1 to 5 were labelled as ++) | 
53 | Cc1ccc(NC(=O)CSc2nc3ccc(NC(=O)c4ccc(C)cc4)cc3s2)cc1 [compound 145] | + (Compounds with a TI of <1 were labelled as +) | 
54 | Cc1cccc(NC(=O)CSc2nc3ccc(NC(=O)c4ccccc4C)cc3s2)c1 [compound 159] | + (Compounds with a TI of <1 were labelled as +) | 
55 | COc1cccc(NC(=O)CSc2nc3ccc(NC(=O)c4ccccc4)cc3s2)c1 [compound 153] | + (Compounds with a TI of <1 were labelled as +) | 
56 | O=C(CSc1nc2ccc(NC(=O)c3ccccc3)cc2s1)Nc1ccccc1 [compound 142] | + (Compounds with a TI of <1 were labelled as +) | 
